Measurements: US7897150B1, “Canine lymphoma cell line and uses thereof” (The Ohio State University, priority 2007, dated 2011)
Counter-ions that a name gives are not always drawn.

Tested on: OSW cell line
Experiment: In vitro chemosensitivity (WST-1 cytotoxicity and proliferation assay)
Format: cell-based
Settings: Canis lupus familiaris; OSW canine T-cell lymphoma cell line, 72 h treatment, WST-1 assay; read-out: inhibitory concentration 50% (IC50)
Procedure: 1-2×10^4 cells were seeded in 96-well plates in quadruplicates to a final volume of 200 μL/well. Cells were treated with doxorubicin hydrochloride (Ben Venue Laboratories-Novation, Bedford, Ohio, USA) or vincristine sulfate (Mayne Pharma Pty Ltd., Mulgrave VIC, Australia) at varying concentrations of drug or vehicle control for 72 h. Cell proliferation and viability was determined using the WST-1 assay, which quantifies the reduction of the tetrazolium salt WST-1 by mitochondria in viable cells. Cell number was determined from absorbance values of known numbers of cells. At various time intervals, 20 μl of WST-1 reagent (Roche, Indianapolis, Ind., USA) was added to each well and incubated for 2 to 4 h at 37° C. The absorbance of the reaction product, after background subtraction, was measured at 450 nm on a Spectra Max M2 plate reader (Molecular Devices, Sunnyvale, Calif., USA). Each experiment was repeated at least three times.
The in vitro chemosensitivity of the OSW cell line to doxorubicin and vincristine was determined.

| Compound | IC50 [µM] |
| --- | --- |
| COc1cccc2c1C(=O)c1c(O)c3c(c(O)c1C2=O)C[C@@](O)(C(=O)CO)C[C@@H]3O[C@H]1C[C@H](N)[C@H](O)[C@H](C)O1 [Doxorubicin, doxorubicin hydrochloride] | 0.5 |
| CC[C@]1(O)C[C@H]2CN(CCc3c([nH]c4ccccc34)[C@@](C(=O)OC)(c3cc4c(cc3OC)N(C=O)[C@H]3[C@@](O)(C(=O)OC)[C@H](OC(C)=O)[C@]5(CC)C=CCN6CC[C@]43[C@@H]65)C2)C1 [vincristine, vincristine sulfate] | 0.4 |
